This is an account of results in patent USRE48461E1, “Modulation of androgen receptor expression” (Ionis Pharmaceuticals, Inc., priority 2012, dated 2021).

Common to all, as to assay type: cell-based, human
The subject of series [1] is KLK3 mRNA. As to the kind of experiment: KLK3 mRNA (AR target gene) in C4-2B MR cells. Conditions: C4-2B MR cells, 0.04-5.00 μM.
Series [2] concerns C4-2B MR cells. As to the kind of experiment: Proliferation of MDV3100-resistant C4-2B cells (CellTiter 96). Particulars: 0.04-5.00 μM, 6 days. The method, boiled down:
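Antisense oligonucleotides were added to the culture medium at 0.04, 0.20, 1.00 and 5.00 μM, with a non-targeting oligonucleotide as negative control. After 6 days of treatment, proliferation was read with CellTiter 96 AQueous One. Values are percent inhibition relative to untreated cells.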

The test system of series [3] is TMPRSS2 mRNA. Put plainly: TMPRSS2 mRNA levels in LMR20 cells. Conditions: with or without DHT/R1881. Here is the method: LMR20 cells were plated at 1,500 cells per well in phenol red-free medium with CSS.

For “GTTGATTTAATGGTTG (all phosphorothioate, sugars by position not given here; further chemistry not fully specified) [ISIS 549458]”, the “AR target gene KLK3 mRNA levels” value in series [1] was “reduced target gene levels in a dose dependent manner more extensively than treatment with ISIS 554221”. Further, in series [2], the “proliferation of C4-2B MR cells” value was “reduced proliferation of the cells in a dose dependent manner more extensively than treatment with ISIS 554221”. Further, the “TMPRSS2 mRNA levels in LMR20 cells” value in series [3] was “reduced PSA levels and TMPRSS2 more extensively than the LNA gapmer ISIS 554221 or MDV3100”.
